Experimental data reported in US20020049157A1, “Use of proteasome inhibitors for treating cancer, inflammation, autoimmune disease, graft rejection and septic shock” (priority 1998, published 2002).

Tests used:
[1] = Activity of LAC in culture supernatants / medium over time; format: physicochemical; settings: for inhibitory activity of LAC-conditioned media on proteasome activity of fresh Jurkat cells: LAC 6 μM
Description: C. The activity of LAC in culture supernatants is short-lived LAC (6 μM) was added to Jurkat cell culture (0.5×10^6 cells/ml). The supernatants were harvested at 4 h, 6 h, 16 h and 24 h. These conditioned media were used to culture fresh Jurkat cells for 3 h. The cells were then harvested and assayed for the proteasome activity as described in FIG. 4B. Samples were in duplicates.
We also investigated whether LAC was stable in the culture supernatant. LAC (6 μM) was added to Jurkat cells culture for 4 h, 6 h, 16 h or 24 h. The conditioned medium was harvested and used to treat fresh Jurkat cells for 3 h, and then the proteasome activity in the lysates of the fresh Jurkat cells was assayed. […] The loss of LAC activity in the 16 h and 24 h conditioned medium is unlikely due to trapping of LAC by proteasomes released by dead Jurkat cells, because LAC could rapidly enter the live cells and the equilibrium of the LAC concentration between both sides of the cytoplasmic membrane should be established very fast. Thus, the proteasomes whether released or not should not make a difference in terms of trapping LAC. Besides, we have also noticed that LAC kept in cell free culture medium at 4° C. would lose its activity within 24 h (data not shown).

cyclin A = assay: Immunoblotting of cyclin A level in T cells; format: cell-based, human; settings: PHA plus hydroxyurea block, released; LAC added at release
Description: Tonsillar T cells were stimulated with PHA (2 μg/ml) for 40 h in the presence of hydroxyurea (1 mM), and these cells were blocked at the G1/S boundary (G1 block). The synchronization was released by washing out hydroxyurea, and the cells were recultured in medium containing 2 μg/ml PHA in the absence or presence of LAC ([…], added once at the time of the release). The cells were harvested at 6 h and 22 h post the G1/S block. The cell lysates (40 μg/sample) were resolved in 10% SDS-PAGE, and transferred to PVDF membranes. The membranes were hybridized with rabbit-anti-Cyclin E or anticyclin A antisera followed by ^125I-protein A. The Cyclin E level (FIG. 8A) and cyclin A level (FIG. 8B) of representative experiments are shown. Similar results were obtained in a total of three independent experiments.
The G1/S phase synchronized T cells represented activated cells, and prolonged exposure to LAC would cause significant cell death.
Tonsillar T cells were cultured in the presence of 2 μg/ml PHA and 1 mM hydroxyurea for 40 h. The cells thus treated were synchronized at the G1/S phase. […]
Immunoblotting was employed to evaluate the levels of Cyclin E, cyclin A, p21^Cip1 and p27^Kip1. […] The cleared lysates were quantitated for protein concentrations. […] The signals on the membrane were detected by [^125I]-protein A followed by autoradiography.

[2] = tested on: human peripheral blood mononuclear cells; assay: Aggregate formation of PHA-stimulated PBMC; format: cell-based; settings: 2 μg/ml PHA plus 10 μM lactacystin; 24 h
Excerpt: (§1) Cell-cell interaction is essential in antigen presentation and in T cell's help to T and B cells. The adhesion molecules are necessary to establish the cell-cell interaction. Blocking the adhesion molecules ICAM-1 and LFA-1 is known to inhibit immune responses and to suppress graft rejection. […] Therefore, inhibition of the proteasome activity will be a useful way to control undesirable immune responses during graft rejection, autoimmune diseases, and inflammation.

mouse lymph node cells = assay: Aggregate formation of Con A-stimulated lymph node cells; format: cell-based; settings: 2 μg/ml Con A plus 10 μM lactacystin; 24 h
Excerpt: as §1

[3] = tested on: mouse peritoneal exudate macrophages; assay: LPS-induced nitric oxide production by macrophages (nitrite, Griess reagent); format: cell-based; settings: 2 μg/ml LPS; lactacystin at different concentrations
Description: Nitric oxide production by the macrophages was measured according to the […] concentrations in the supernatants.
BALB/c mice were injected i.p. with 3 ml of 3% thioglycollate broth. Three days later, peritoneal exudate macrophages of the mice were harvested and washed at 170 g for 10 min at 4° C. The macrophages were cultured in Teflon vials (2 cm in diameter) at 4×10^6/2 ml with various reagents (LPS, 2 μg/ml; IFNγ, 100 u/ml; LAC, 0.62-5 μM for the nitric oxide assay and 5 μM for the Northern blot assay).
The nitrite concentration in the culture supernatant was measured as a way to indirectly reflect the nitric oxide level following a method described by Ding et al (Ding et al., 1988, J. Immunology 141:2407). Release of reactive nitrogen intermediates and reactive oxygen intermediates form mouse peritoneal macrophages: comparison of activation cytokines and evidence for independent production. Briefly, 100 μl of supernatants collected from 48 h macrophage cultures was incubated with an equal volume of the Griess reagent (1% sulfanimide/0.1% naphthylethylene diamine dihydrochloride/2.5% H3PO4) at room temperature for 10 min in 96-well microtitration plates, the O.D. was measured at 550 nm. Sodium nitrite of various concentrations were used to construct standard curves.

Bik = assay: Immunoblotting of Bik in wild type Namalwa cells; format: cell-based, human; settings: 6 h; lactacystin 6 μM, staurosporine 0.3 μM
Description: Jurkat cells, wild type Namalwa cells and Bcl-xL transfected Namalwa cells were treated with medium (lanes 1), staurosporine (0.3 μM, lanes 2) and lactacystin (6 μM, lanes 3) for 6 H. The proteins from the mitochondrial fraction of these cells were analyzed by immunoblotting and the amount of Bik, Bcl-xL, Bax, and Bak evaluated. The same membranes were used sequentially and probed with different antibodies against these factors. A nonspecific band recognized by a monoclonal antibody against cytochrome […] (COX) was used as control for even sample loading in the lanes.

CC(=O)N[C@@H](CSC(=O)[C@]1([C@@H](O)C(C)C)NC(=O)[C@H](C)[C@@H]1O)C(=O)O [LAC, lactacystin]
inhibitory activity of LAC-conditioned media on proteasome activity of fresh Jurkat cells ([1]; media conditioned 16 h and 24 h): lost their inhibitory effect | inhibitory activity of LAC-conditioned media on proteasome activity of fresh Jurkat cells ([1]; media conditioned up to 6 h): could still actively inhibit the enzymatic activity | time in which LAC loses its activity ([1]; cell free culture medium at 4° C., data not shown): ≤ 24 h | cyclin A level during the S phase (cyclin A): did not affect the level | aggregate formation [2]: effectively block the aggregate formation | aggregate formation (mouse lymph node cells): effectively block the aggregate formation | LPS-induced NO production [3]: effectively repress | accumulation of Bik in Namalwa cells (Bik): accumulates
